Assay results published in patent US20190210969A1, “INTRAESOPHAGEAL ADMINISTRATION OF TARGETED NITROXIDE AGENTS FOR PROTECTION AGAINST IONIZING IRRADIATION-INDUCED ESOPHAGITIS” (University of Pittsburgh - Of the Commonwealth System of …, priority 2010, published 2019).

Legend:
[1] = tested on: C57BL/6NHsd mice, upper body irradiation; assay: Survival after upper body (thoracic) irradiation, irradiation-induced esophagitis; type: in vivo, mouse; conditions: for protection (survival): 4 μg JP4-039 in 110 μl F15 10 minutes before, MnSOD-PL 24 hours prior, preliminary data
Text: Animals and animal care. C57BL/6HNsd female and C57BL/6JHNsd-GFP male mice (22-22 gm) were housed, five per cage and fed standard laboratory chow according to previous publications (3). C57BL/6NHsd mice (15 per group) were irradiated (details are given in the next section) and received swallowed JP4-039 or MnSOD-PL pre- or post-radiation. The mice were monitored for development of esophagitis.
Irradiation. Mice were irradiated to 28 or 29 Gy to the upper body using a JL Shepherd Mark I cesium irradiator (J.L. Shepherd and Associates, San Fernando, Ca, USA) ([…]), according to published methods (Epperly M W, et al. Zhang X, Nie S, Cao S, Kagan V, Tyurin V and Greenberger J S: MnSOD-plasmid liposome gene therapy effects on ionizing irradiation induced lipid peroxidation of the esophagus. In Vivo 19: 997-1004, 2005). The head and abdomen were shielded, as described previously (Stickle R L, et al. Prevention of irradiation-induced esophagitis by plasmid/liposome delivery of the human manganese superoxide dismutase (MnSOD) transgene. Radiat Oncol Invest Clinical & Basic Res 7: 204-217, 1999), so that only the thoracic cavity received irradiation.
Intraesophageal drug administration. The methods for preparation of MnSOD-plasmid liposomes using PNVL3 lipid have been published previously (Epperly M W, et al. Modulation of radiation-induced cytokine elevation associated with esophagitis and esophageal stricture by manganese superoxide dismutase-plasmid/liposome (MnSOD-PL) gene therapy. Radiat Res 155: 2-14, 2001). Briefly, 100 μl liposomes containing […] plasmid were injected by syringe intraesophageally into non-anesthetized mice immediately after they received 100 μl distilled water.
The stock solutions described above were diluted, so that the total amount of JP4-039 administered to each animal was 400 μg. Mice were immobilized for irradiation with intraperitoneal Nembutal anesthesia after administration of JP4-039 as described above. Mice were exposed to single-dose (29 Gy) or fractionated radiation (11.5 Gy per day for four days) to the upper body.

[2] = Uptake of swallowed JP4-039 in esophageal SP cells incl. GFP+ marrow chimeric mice; type: in vivo, mouse
[3] = tested on: 32D cl 3 mouse hematopoietic progenitor cell line; assay: Irradiation survival curves of 32D cl 3 cells (colony assay); type: cell-based; conditions: for ñ (shoulder on the survival curve): 0 to 8 Gy
Protocol: Groups of 15 mice received intraperitoneal injection of 10 mg. per kilogram of each indicated GS-nitroxide compound or carrier (Cremphora plus alcohol at 1 to 1 ratio, then diluted 1 to 10 in distilled water). Mice received 10 mg per kilogram intra-peritoneal injection 24 hours prior to total body irradiation. Control mice received radiation alone. […] (P=0.0005) FIG. 6 is a graph showing that GS-nitroxide JP4-039 is an effective hematopoietic cell radiation mitigator when delivered 24 hr after irradiation. Irradiation survival curves were performed on cells from the 32D cl 3 mouse hematopoietic progenitor cell line, incubated in 10 μM JP4-039 for 1 hour before irradiation, or plated in methylcellulose containing 10 μM […] after irradiation. Cells were irradiated from 0 to 8 Gy, plated in 0.8% methylcellulose containing media, and incubated for 7 days at 37° C. Colonies of greater than 50 cells were counted and data analyzed by linear quadratic and single-hit, multi-target models.

[4] = JP4-039 content of sorted esophageal SP and NSP cells (EPR); type: in vivo, mouse; conditions: 20 esophagi excised 10 minutes after intraesophageal delivery
Protocol: Ten minutes after administration of JP4-039, esophagi were removed, minced, and incubated in a solution of 0.2% Collagenase type II, 0.3% Dispase and 0.025% Trypsin for 45 minutes at 37 degrees Celsius. Cell aggregates were then passed through sequentially smaller needles (to 23-gauge) and filtered with a […] cell strainer into DMEM supplemented with 40% fetal bovine serum. Suspensions were pelleted via centrifugation and resuspended at 10^6 cells/ml in pre-warmed DMEM (2% FBS, 10 mM HEPES). Cells were incubated in 6 μg/ml Hoechst 33342 for 90 minutes to identify SP cells. Verapamil, which inhibits the efflux of Hoechst, was used as a concentration of 50 μM for the purpose of cell gating. Cells were pelleted and resuspended in cold Hank's Balanced Salt Solution (HBSS) (2% FBS, 10 mM HEPES) and incubated with anti-CD45-phycoerythrin (PE)-fluorescein isothiocyanate (FITC) and/or anti-Ter119-PE-Cy7 antibodies at 1:200 dilutions, to discriminate hematopoietic cells. Antibody-treated cells were incubated on ice for 20 minutes, washed in cold HBSS, filtered, pelleted, and resuspended in cold HBSS. […] SP and NSP cells were quantified, sorted into separate collection tubes containing cold HBSS (2% FBS, 10 mM HEPES) and pelleted. […] JP4-039 content in sorted SP and NSP cells was quantified by electron paramagnetic resonance (EPR) analysis using a JEOL-RE1XEPR spectrometer. […]

[5] = tested on: mice, 29 Gy upper body irradiation plus GFP+ male marrow; assay: Survival after 29 Gy upper body irradiation with GFP+ marrow injection on day 5; type: in vivo, mouse; conditions: given before 29 Gy; GFP+ marrow i.v. day 5; p=0.0315 (MnSOD-PL), p=0.0462 (JP4-039/F15)
Text: Bone marrow transplantation, esophageal excision and cell sorting. Five days after irradiation, the time shown to optimize marrow cell homing to the irradiated esophagus, mice received intravenous injection of 1.0×10^7 C57BL/6HNsd GFP+ male bone marrow cells prepared as single-cell suspension from donor male mice according to published methods (Niu Y, et al. Irradiated esophageal cells are protected from radiation-induced recombination by MnSOD gene therapy. Rad Res 173: 453-461, 2010 and Niu Y, et al. Intraesophageal MnSOD-plasmid liposome administration enhances engraftment and self-renewal capacity of bone marrow derived progenitors of esophageal squamous epithelium. Gene Therapy 15: 347-356, 2008). At serial time points after marrow transplantation, esophagus specimens were removed, and single cell suspensions prepared according to published methods (Id.). The esophagus cell suspensions were sorted for GFP+ cells. The number of GFP+ cells per 10^6 was calculated as described previously (Id.). (GFP+) cells were placed on slides, and stained for detection of donor cell markers (Id.).
Intraesophageal JP4-039/formulation improves survival through recovery of endogenous esophageal progenitor cells. […] Five groups of 15 mice each received 29 Gy to the upper body. One group received MnSOD-PL 24 hours prior to irradiation.

For `CC(C)C[C@@H](/C=C/CC(=O)NC1CC(C)(C)N([O])C(C)(C)C1)NC(=O)OC(C)(C)C` [JP4-039, TEMPO-4-yl-(S,E)-5-(tert-butoxycarbonylamino)-7-methyloct-3-enamide], the survival ([1]; 400 μg in F15 immediately prior to single fraction 29 Gy thoracic irradiation, vs F15 vehicle only, p=0.0384) was “increased survival”, the “protection (survival)” value ([1]; 29 Gy upper body irradiation, vs F15 or radiation alone) was “protective” and the “protection (survival)” value ([1]; four daily sessions of 12 Gy, p=0.0430) was “protective”. The survival ([1]; prior to each of four fractions of 11.5 Gy thoracic irradiation, vs F15 only, p=0.0388) was “increased survival”, the “uptake in GFP+ esophageal (SP) stem cells” value ([2]; GFP+ marrow chimeric mice) was “reaches GFP+ esophageal (SP) stem cells” and the “uptake in esophageal SP cells” value ([2]; preliminary data) was “reaches SP cells”. The “ñ (shoulder on the survival curve)” value ([3]; 10 μM for 1 hour before irradiation, cells alone 1.29±0.13, p=0.0109) was 5.25±0.84, the “survival of 32D c13 cells” value ([3]; 10 μM for one hour, 0-8 Gy irradiation, preliminary data) was “increased survival” and the “ñ (shoulder on the survival curve)” value ([3]; 10 μM in methylcellulose after irradiation, cells alone 1.29±0.13, p=0.0022) was 4.55±0.47. The “JP4-039 content of sorted SP cell pellet” value ([4]; 101,00 SP cells) was 275.1 fmol, the “JP4-039 content of sorted NSP cells” value ([4]; 3,387,00 NSP cells) was 221.3 fmol and the survival [5] was “improved survival”.
